{
  "source": "patent US20250018014A1",
  "about": "“METHOD FOR TREATING AND/OR PREVENTING REGNASE-1-RELATED DISEASE” (OSAKA UNIVERSITY, priority 2018, published 2025)",
  "key": {"[1]": {"biological_target": "T1, FL_Reg1 (full-length human Regnase-1) phosphorylation by TBK1 (Homo sapiens, UniProt Q5D1E8)", "T1 construct": "made in house; host or cells: Expi293 cells", "T1 sequence (Q5D1E8 1-599)": "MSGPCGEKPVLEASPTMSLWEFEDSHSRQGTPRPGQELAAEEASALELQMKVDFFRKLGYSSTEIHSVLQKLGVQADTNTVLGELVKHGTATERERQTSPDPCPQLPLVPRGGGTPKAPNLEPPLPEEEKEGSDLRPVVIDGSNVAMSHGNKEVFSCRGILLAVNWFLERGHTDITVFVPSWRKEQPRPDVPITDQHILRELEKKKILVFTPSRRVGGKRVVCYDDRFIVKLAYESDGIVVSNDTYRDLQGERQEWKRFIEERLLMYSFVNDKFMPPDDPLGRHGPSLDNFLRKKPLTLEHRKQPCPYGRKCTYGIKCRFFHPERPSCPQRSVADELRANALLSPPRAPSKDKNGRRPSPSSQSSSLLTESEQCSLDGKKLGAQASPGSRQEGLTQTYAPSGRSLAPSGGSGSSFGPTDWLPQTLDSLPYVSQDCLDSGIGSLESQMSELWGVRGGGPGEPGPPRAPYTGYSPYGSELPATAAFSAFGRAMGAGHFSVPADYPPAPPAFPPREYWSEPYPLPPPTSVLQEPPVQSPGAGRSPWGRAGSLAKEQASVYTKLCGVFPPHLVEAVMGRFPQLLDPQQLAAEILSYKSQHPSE", "assay": "Regnase-1 phosphorylation inhibition by compounds (AlphaScreen), TBK1, full-length Regnase-1", "format": "biochemical", "settings": "Table 13; phosphorylation by TBK1; read-out: Phosphorylation inhibition FL_Reg1, 50% inhibition concentration (TBK1)", "source_text": "(§1) The full-length sequence of human Regnase-1 (UniProt ID: Q5D1E8) was used to prepare a construct having a FLAG tag on the N-terminal side and a recognition sequence for biotin ligase BirA on the C-terminal side (FL_Reg1) as a target protein. The above-mentioned Regnase-1 was expressed in mammalian Expi293 cells, purified with FLAG M2 agarose, and isolated by gel filtration chromatography. When biotinylation was required, methods from nonpatent documents (BMC biotechnology, 2008,8,41; and Protein Science, 1999,8,921-929) were used. […]\n(§2) Using Kinase assay buffer III (manufactured by SignalChem) supplemented with 2 mM DTT, 100 μM sodium vanadate, and 2 mM manganese chloride, kinase (IKKβ (manufactured by SignalChem) or TBK1 (manufactured by SignalChem)) and Regnase-1 were reacted in the presence of 10 μM ATP at room temperature for 2 hours to perform a phosphorylation reaction.\n(§3) Phosphorylated Regnase-1 was detected by the AlphaScreen system. After each of the above-mentioned phosphorylated Regnase-1 antibodies was added and reacted at room temperature for one hour, anti-FLAG AlphaLISA Acceptor Beads (manufactured by PerkinElmer) and Protein A AlphaScreen Donor Beads (manufactured by PerkinElmer) were added, and EnVision (manufactured by PerkinElmer) was used to measure the excited luminescence. As a result, phosphorylated Regnase-1 produced by the phosphorylation reaction by kinase was specifically detected, and signals were confirmed to be enhanced in a manner dependent on Regnase-1 and kinase concentrations (FIG. 24).\n(§4) After mixing 2 nM of the above-mentioned Regnase-1 and the compound, phosphorylated Regnase-1 produced by the phosphorylation reaction was detected by the AlphaScreen system. As the results, the inhibition rate was calculated from the signals obtained when adding the compound at each concentration, by defining the signal obtained with Regnase-1 alone to be 100% inhibition rate, and the signal obtained when the same amount of solvent (DMSO) is added in place of the compound as 0% inhibition rate. The 50% inhibition concentration (μM) was calculated from the obtained dose response curve (Table 11)."}, "[2]": {"biological_target": "T2, FL_Reg1 (full-length human Regnase-1) phosphorylation by IKKβ (Homo sapiens, UniProt Q5D1E8)", "T2 construct": "made in house; host or cells: Expi293 cells", "T2 sequence (Q5D1E8 1-599)": "T1 sequence (Q5D1E8 1-599)", "assay": "Regnase-1 phosphorylation inhibition by compounds (AlphaScreen), IKKβ, full-length Regnase-1", "format": "biochemical", "settings": "Table 14; phosphorylation by IKKβ; read-out: Phosphorylation inhibition FL_Reg1, 50% inhibition concentration (IKKβ)", "source_text": "as §1, §2, §3, §4"}, "[3]": {"biological_target": "T3, binding between TBK1 and full-length Regnase-1 (FL_Reg1) (Homo sapiens, UniProt Q5D1E8)", "T3 construct": "made in house; host or cells: Expi293 cells", "T3 sequence (Q5D1E8 1-599)": "T1 sequence (Q5D1E8 1-599)", "assay": "Inhibition of kinase-Regnase-1 binding by the compounds (AlphaScreen), TBK1", "settings": "Table 13; binding between TBK1 and Regnase-1; read-out: Binding inhibition FL_Reg1, 50% inhibition concentration (TBK1)", "experimental": "(§5) As a target protein, a construct having a FLAG tag on the N-terminal side and a recognition sequence for biotin ligase BirA on the C-terminal side of the full-length sequence of human Regnase-1 (UniProt ID: Q5D1E8) was prepared (FL_Reg1). The above-mentioned Regnase-1 was expressed in mammalian Expi293 cells, purified with FLAG M2 agarose, and isolated by gel filtration chromatography. When biotinylation was required, methods from nonpatent documents (BMC biotechnology, 2008,8,41; and Protein Science, 1999,8,921-929) were used.\n(§6) After mixing 2.5 nM of the above-mentioned Regnase-1 and the compound, 2.5 nM of IKKβ or TBK1 was added and reacted at room temperature for two hours. Then, Anti FLAG AlphaLISA Acceptor Beads (manufactured by PerkinElmer) and Glutathione-coated AlphaScreen Donor Beads (manufactured by PerkinElmer) were added, and excited luminescence was measured using En Vision (manufactured by PerkinElmer). As the results, the inhibition rate from the signals obtained when adding the compound at each concentration were calculated, by defining the signal obtained with Regnase-1 alone to be 100% inhibition rate, and the signal obtained when the same amount of solvent (DMSO) is added in place of the compound as 0% inhibition rate. The 50% inhibition concentration (μM) was calculated from the obtained dose response curve (Table 12)."}, "[4]": {"biological_target": "T4, binding between IKKβ and full-length Regnase-1 (FL_Reg1) (Homo sapiens, UniProt Q5D1E8)", "T4 construct": "made in house; host or cells: Expi293 cells", "T4 sequence (Q5D1E8 1-599)": "T1 sequence (Q5D1E8 1-599)", "assay": "Inhibition of kinase-Regnase-1 binding by the compounds (AlphaScreen), IKKβ", "settings": "Table 14; binding between IKKβ and Regnase-1; read-out: Binding inhibition FL_Reg1, 50% inhibition concentration (IKKβ)", "experimental": "as §5, §6"}, "[5]": {"biological_target": "T5, ΔCTD_Reg1 (amino acids 1 to 546 of human Regnase-1) phosphorylation by IKKβ (Homo sapiens, UniProt Q5D1E8)", "T5 construct": "made in house; host or cells: Expi293 cells", "T5 sequence (Q5D1E8 1-546)": "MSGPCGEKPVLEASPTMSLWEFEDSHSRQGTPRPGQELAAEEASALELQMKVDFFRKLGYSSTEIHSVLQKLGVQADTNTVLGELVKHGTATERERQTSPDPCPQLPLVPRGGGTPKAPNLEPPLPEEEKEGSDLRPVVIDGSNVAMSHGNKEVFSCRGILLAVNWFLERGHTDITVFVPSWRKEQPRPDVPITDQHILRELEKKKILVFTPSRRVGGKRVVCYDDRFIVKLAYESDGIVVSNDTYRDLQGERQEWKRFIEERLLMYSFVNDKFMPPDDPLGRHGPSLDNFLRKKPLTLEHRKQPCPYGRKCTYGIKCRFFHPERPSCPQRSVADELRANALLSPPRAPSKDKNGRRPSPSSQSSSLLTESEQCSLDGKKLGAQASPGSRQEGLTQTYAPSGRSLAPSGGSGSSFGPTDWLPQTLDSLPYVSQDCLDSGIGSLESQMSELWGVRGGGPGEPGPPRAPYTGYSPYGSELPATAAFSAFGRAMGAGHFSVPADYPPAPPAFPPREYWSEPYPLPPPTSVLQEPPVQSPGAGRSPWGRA", "assay": "Regnase-1 phosphorylation inhibition by compounds (AlphaScreen), IKKβ, CTD-deficient Regnase-1", "format": "biochemical", "settings": "Table 14; phosphorylation by IKKβ; read-out: Phosphorylation inhibition ΔCTD_Reg1, 50% inhibition concentration (IKKβ)", "experimental": "Among the full-length human Regnase-1 sequence, the 1st to 546th amino acid sequence was prepared and made into a construct having a FLAG tag on the N-terminal side and a biotin ligase BirA recognition sequence on the C-terminal side (herein, a Regnase-1 lacking the C-terminal domain of Regnase-1 (amino acids 547 to 599 in the case of SEQ ID NO: 2) is referred to as “ΔCTD_Reg1”. “ΔCTD_Reg1” is different from “Regnase-1ΔCTD”, which is a C-terminal domain deletion variant resulting from a frameshift mutation caused by a 1 bp deletion at codon 517, as prepared in Example 13). In addition, the sequence from amino acids 301 to 599 of the full-length human Regnase-1 sequence was designated as C-terminal Regnase-1, and a construct having a FLAG tag on the N-terminal side and a recognition sequence for biotin ligase BirA on the C-terminal side was prepared (Reg1_301-599). The above-mentioned Regnase-1 was expressed in mammalian Expi293 cells, purified with FLAG M2 agarose, and isolated by gel filtration chromatography. When biotinylation was required, methods of nonpatent documents (BMC biotechnology, 2008,8,41; and Protein Science, 1999,8,921-929) were used.\nas §2, §3, §4"}},
  "note": "pIC50: −log10 of the molar value. Residues, ends and D or L forms follow the SMILES beside them.",
  "data": [
    {"smiles": "CC[C@H](C)[C@@H]1NC(=O)[C@H](Cc2c[nH]c3ccccc23)NC(=O)[C@H](C)N(C)C(=O)C[C@@H](C(=O)N2CCCC2)NC(=O)[C@H](CCC(=O)O)NC(=O)[C@H](CC(N)=O)NC(=O)[C@H](Cc2c[nH]c3ccccc23)NC(=O)[C@H](Cc2ccccc2)NC(=O)[C@H](CC(=O)O)NC(=O)[C@H](Cc2c[nH]c3ccccc23)NC1=O", "note": "[PP24] (HELM PEPTIDE1{[meA].W.I.W.D.F.W.N.E.D.[C1CCN([*:1])C1]}$PEPTIDE1,PEPTIDE1,1:R1-10:R3$$$V2.0)", "values": [
      {"measurement": "pIC50", "setting": "[1]", "result": 4.45},
      {"measurement": "pIC50", "setting": "[2]", "result": 5.28},
      {"measurement": "pIC50", "setting": "[3]", "result": 5.11},
      {"measurement": "pIC50", "setting": "[4]", "result": 5.06}
    ]},
    {"smiles": "CC[C@H](C)[C@@H]1NC(=O)[C@H](CCCCN)NC(=O)[C@H](Cc2ccc(O)cc2)NC(=O)[C@H](Cc2c[nH]c3ccccc23)NC(=O)[C@H](CO)NC(=O)[C@H](CO)NC(=O)[C@H](Cc2c[nH]cn2)NC(=O)CNC(=O)[C@H](Cc2ccc(O)cc2)NC(=O)[C@H]([C@@H](C)O)NC(=O)[C@@H](C)N(C)C(=O)C[C@@H](C(=O)N2CCCC2)NC(=O)[C@H](Cc2c[nH]c3ccccc23)NC1=O", "note": "[PP9] (HELM PEPTIDE1{[C[C@H](C(=O)[*:2])N(C)[*:1]].T.Y.G.H.S.S.W.Y.K.I.W.D.[C1CCN([*:1])C1]}$PEPTIDE1,PEPTIDE1,1:R1-13:R3$$$V2.0)", "values": [
      {"measurement": "pIC50", "setting": "[1]", "result": 5.38},
      {"measurement": "pIC50", "setting": "[2]", "result": 5.57},
      {"measurement": "pIC50", "setting": "[3]", "result": 5.08},
      {"measurement": "pIC50", "setting": "[4]", "result": 4.97}
    ]},
    {"smiles": "C[C@@H]1C(=O)N[C@@H](CCC(=O)O)C(=O)N[C@@H](CC(=O)O)C(=O)N[C@@H]([C@@H](C)O)C(=O)N2CCC[C@H]2C(=O)N[C@@H](CCC(=O)O)C(=O)N[C@@H](CC(=O)O)C(=O)N[C@@H](CC(=O)O)C(=O)N[C@@H](Cc2c[nH]cn2)C(=O)N[C@H](C(=O)N2CCCC2)CC(=O)N1C", "note": "[PP25] (HELM PEPTIDE1{[C[C@H](C(=O)[*:2])N(C)[*:1]].E.D.T.P.E.D.D.H.D.[C1CCN([*:1])C1]}$PEPTIDE1,PEPTIDE1,1:R1-10:R3$$$V2.0)", "values": [
      {"measurement": "pIC50", "setting": "[5]", "result": 4.32},
      {"measurement": "pIC50", "setting": "[1]", "result": 4.72},
      {"measurement": "pIC50", "setting": "[2]", "result": 4.57},
      {"measurement": "pIC50", "setting": "[3]", "result": 4.88},
      {"measurement": "pIC50", "setting": "[4]", "result": "< 4.21"}
    ]}
  ]
}
